Measured values published in US20060073589A1, “Rapid generation of activated mononuclear antigen presenting cells from monocytes” (priority 2002, published 2006).
*1 amine or outer side, *2 acyl side, *3 side chain or, on linkers, in order; H or OH if unused. Where a SMILES comes first, the peptide text is derived from it. Bridges are numbered along the chain shown (N, C = ends). Roman numbers before positions name the chains, in order. [ ]: non-standard residue; d: D form. Actinocin(9to1) = Cc1c2oc3c(C)ccc(C(=O)[*:1])c3nc-2c(C(=O)[*:2])c(N)c1=O; NMeV = CN[C@H](C(=O)O)C(C)C; Sar = CNCC(=O)O

test system: CD83 expression on the cell membrane of monocytes; assay: CD83 surface expression on monocytes cultured with metabolic inhibitors; type: cell-based, human; details: 4 h monocyte culture, inhibitor added at beginning; actinomycin D 100 ng/ml, cyclohexamide 100 μM, brefeldin A 5 μg/ml
Protocol: The dotted line indicates the FACS profile of cells stained with isotype control mAb. The data are representative of three independent experiments.
Cells were washed and resuspended in PBS containing 1% human serum and incubated with fluorochrome-conjugated mAbs for 30 min at 4° C. The following mAbs were used for immunofluorescent staining: anti-CD14, CD80, CD4, CD25, CD54, HLA-DR (Becton Dickinson, San Jose Calif.), CD40, CD86, CD83, CD1a, CD62L, HLA A-B-C, ManR, CD58, LFA-1, CD32 (Pharmingen, San Diego, Calif.), CD2 (clone SFCI3Pt2H9; Beckman Coulter, Fullerton, Calif.), CD33 (Immunotech). Samples were collected and analysed by using a FACSort (Becton Dickinson) and data analysis was performed by CellQuest software (Becton Dickinson). Cells were electronically gated according to light scatter properties, in order to exclude cell debris and contaminating lymphocytes.
The CD83 surface expression in cells cultured in the presence of various metabolic inhibitors added at the beginning of the culture was examined.

| Compound | inhibition of up-regulation of CD83 expression on the cell membrane |
| --- | --- |
| Cc1c2oc3c(C)ccc(C(=O)N[C@@H]4C(=O)N[C@H](C(C)C)C(=O)N5CCC[C@H]5C(=O)N(C)CC(=O)N(C)[C@@H](C(C)C)C(=O)O[C@@H]4C)c3nc-2c(C(=O)N[C@@H]2C(=O)N[C@H](C(C)C)C(=O)N3CCC[C@H]3C(=O)N(C)CC(=O)N(C)[C@@H](C(C)C)C(=O)O[C@@H]2C)c(N)c1=O [actinomycin D] (I: T[dV]P[Sar][NMeV] / II: T[dV]P[Sar][NMeV]; ester I:1-I:C, II:1-II:C; linker I:N-II:N via Actinocin(9to1)) | not significantly inhibited |
| C[C@H]1CCC/C=C/[C@@H]2C[C@H](O)C[C@H]2[C@H](O)/C=C/C(=O)O1 [brefeldin A] | completely blocked |
| C[C@@H]1C[C@@H]([C@H](O)CC2CC(=O)NC(=O)C2)C(=O)[C@@H](C)C1 [cyclohexamide] | completely blocked |
